Measurements: US12391692B2, “Spiro ring-containing quinazoline compound” (WIGEN BIOMEDICINE TECHNOLOGY (SHANGHAI) CO., LTD., priority 2020, dated 2025)

What was measured:
[1] = tested on: pERK level in H358 cells; experiment: pERK and ERK protein content assay in H358 cells (ELISA); format: cell-based; conditions: Homo sapiens, NCI-H358, pERK/ERK ratio vs DMSO group, compound 1 μM, 24 h, read-out: Inhibition rate (%)
Method: H358 cells were seeded in a 24-well plate. After one day of growth, a test compound (at a concentration of 1 μM) was added. After 24 h of action of the compound, the cells were lysed, and the cell lysate was transferred to a 96-well ELISA plate. The levels of pERK and ERK in the lysate were measured using an ELISA kit (abcam 176660). The ratio of pERK to ERK was calculated and compared with that of the DMSO group, and the percentage of inhibition of pERK activity by the compound was calculated.

[2] = tested on: H358 cells; experiment: Antiproliferative activity against H358 cells (Cell Titer Glow, ultra-low attachment plate); format: cell-based; conditions: Homo sapiens, NCI-H358, 72 h, three days after addition of compound
Method: 2500 H358 cells were seeded in a 96-well ultra-low attachment plate (corning, 7007). After one day of growth, a serially diluted compound (a maximum concentration of 5 μM, 5-fold dilution, a total of five doses) was added. Three days after the addition of the compound, Cell Titer Glow (Promega, G9681) was added to evaluate pellet growth, and the IC50 value was calculated.

| IC50 [2] [nM] | Structure (SMILES) | inhibition at 1 µM [1] [%] |
| --- | --- | --- |
| < 300 | C=CC(=O)N1CC2(CCN(c3nc(N4CC(CC#N)(N(C)CCO)C4)nc4c(OCC(F)(F)F)c(-c5c(C)ccc6[nH]ncc56)c(C5CC5)cc34)CC2)C1 [Compound 52] | > 90 |
| < 300 | C=CC(=O)N1CC2(CCN(c3nc(N4CC5(CC(O)CN5C)C4)nc4c(OCC(F)(F)F)c(-c5c(C)ccc6[nH]ncc56)c(C5CC5)cc34)CC2)C1 (centres unmarked) [Compound 121] | > 90 |
| < 300 | C=CC(=O)N1CC2(CCN(c3nc(N4CC5(C4)CC(F)(F)CN5CC)nc4c(OCC(F)(F)F)c(-c5c(C)ccc6[nH]ncc56)c(C5CC5)cc34)CC2)C1 [Compound 130] | > 90 |
| < 300 | C=CC(=O)N1CC2(CCN(c3nc(N4CC(OC5CCN(C)CC5)C4)nc4c(OCC(F)(F)F)c(-c5c(C)ccc6[nH]ncc56)c(C5CC5)cc34)CC2)C1 [Compound 15] | > 90 |
| < 300 | C=CC(=O)N1CC2(CCN(c3nc(N4CC(S(=O)(=O)N5CCN(C)CC5)C4)nc4c(OCC(F)(F)F)c(-c5c(C)ccc6[nH]ncc56)c(C5CC5)cc34)CC2)C1 [Compound 49] | > 90 |
| < 300 | C=CCN1CCCC12CN(c1nc(N3CCC4(CC3)CN(C(=O)C=C)C4)c3cc(C4CC4)c(-c4c(C)ccc5[nH]ncc45)c(OCC(F)(F)F)c3n1)C2 [Compound 119] | > 90 |
| < 300 | C=CC(=O)N1CC2(CCN(c3nc(O[C@H]4C[C@@H](N5CC6(CC6)C5)C4)nc4c(OCC(F)(F)F)c(-c5c(C)ccc6[nH]ncc56)c(C5CC5)cc34)CC2)C1 [Compound 93] | > 90 |
| < 300 | C=CC(=O)N1CC2(CCN(c3nc(N4CC(N(C)CCO)C4)nc4c(OCC(F)(F)F)c(-c5c(C)ccc6[nH]ncc56)c(C5CC5)cc34)CC2)C1 [Compound 21] | > 90 |
| < 300 | C=CC(=O)N1CC2(CCN(c3nc(N4CC(C)(CN(C)C)C4)nc4c(OCC(F)(F)F)c(-c5c(C)ccc6[nH]ncc56)c(C5CC5)cc34)CC2)C1 [Compound 62] | > 90 |
| < 300 | C=CC(=O)N1CC2(CCN(c3nc(N4CC(OCC5CN(C)C5)C4)nc4c(OCC(F)(F)F)c(-c5c(C)ccc6[nH]ncc56)c(C5CC5)cc34)CC2)C1 [Compound 19] | > 90 |
| < 300 | C=CC(=O)N1CC2(CCN(c3nc(N4CC5(CCN5C5CCC5)C4)nc4c(OCC(F)(F)F)c(-c5c(C)ccc6[nH]ncc56)c(C5CC5)cc34)CC2)C1 [Compound 70] | > 90 |
| 300 to 1000 | C=CC(=O)N1CC2(CCN(c3nc(N4CC(CO)C4)nc4c(OCC(F)(F)F)c(-c5c(C)ccc6[nH]ncc56)c(C5CC5)cc34)CC2)C1 [Compound 3] | 50 to 90 |
| 300 to 1000 | C=CC(=O)N1CC2(CCN(c3nc(N4CC(N5CC6(CCOCC6)C5)C4)nc4c(OCC(F)(F)F)c(-c5c(C)ccc6[nH]ncc56)c(C5CC5)cc34)CC2)C1 [Compound 33] | 50 to 90 |
| < 300 | C=CC(=O)N1CC2(CCN(c3nc(N4CC5(CN(C)CCO5)C4)nc4c(OCC(F)(F)F)c(-c5c(C)ccc6[nH]ncc56)c(C5CC5)cc34)CC2)C1 [Compound 81] | > 90 |
| 300 to 1000 | C=CC(=O)N1CC2(CCN(c3nc(N4CC(n5ccnc5)C4)nc4c(OCC(F)(F)F)c(-c5c(C)ccc6[nH]ncc56)c(C5CC5)cc34)CC2)C1 [Compound 41] | 50 to 90 |
| 300 to 1000 | C=CC(=O)N1CC2(CCN(c3nc(N4CC(N5CC[S+]([O-])CC5)C4)nc4c(OCC(F)(F)F)c(-c5c(C)ccc6[nH]ncc56)c(C5CC5)cc34)CC2)C1 [Compound 26] | 50 to 90 |
| 300 to 1000 | C=CC(=O)N1CC2(CCN(c3nc(O[C@H]4C[C@H](N5CCC5)C4)nc4c(OCC(F)(F)F)c(-c5c(C)ccc6[nH]ncc56)c(C5CC5)cc34)CC2)C1 [Compound 88] | 50 to 90 |
| < 300 | C=CC(=O)N1CC2(CCN(c3nc(N4CC(CC#N)(N(C)C)C4)nc4c(OCC(F)(F)F)c(-c5c(C)ccc6[nH]ncc56)c(C5CC5)cc34)CC2)C1 [Compound 51] | > 90 |
| 300 to 1000 | C=CC(=O)N1CC2(CCN(c3nc(O[C@H]4C[C@H](N5CCCC5)C4)nc4c(OCC(F)(F)F)c(-c5c(C)ccc6[nH]ncc56)c(C5CC5)cc34)CC2)C1 [Compound 90] | 50 to 90 |
| < 300 | C=CC(=O)N1CC2(CCN(c3nc(N4CC(COC)C4)nc4c(OCC(F)(F)F)c(-c5c(C)ccc6[nH]ncc56)c(C5CC5)cc34)CC2)C1 [Compound 9] | > 90 |

| IC50 [2] [nM] | Structure (SMILES) | inhibition at 1 µM [1] [%] |
| --- | --- | --- |
| 300 to 1000 | C=CC(=O)N1CC2(CCN(c3nc(N4CC(N5CCSCC5)C4)nc4c(OCC(F)(F)F)c(-c5c(C)ccc6[nH]ncc56)c(C5CC5)cc34)CC2)C1 [Compound 25] | > 90 |
| < 300 | C=CC(=O)N1CC2(CCN(c3nc(N4CC(CN(C)C)C4)nc4c(OCC(F)(F)F)c(-c5c(C)ccc6[nH]ncc56)c(C5CC5)cc34)CC2)C1 [Compound 1, 1-(7-(6-cyclopropyl-2-(3-((dimethylamino)methyl)azetidin-1-yl)-7-(5-methyl-1H-indazol-4-yl)-8-(2,2,2-trifluoroethoxy)quinazolin-4-yl)-2,7-diazaspiro[3.5]non-2-yl)prop-2-en-1-one] | > 90 |
| < 300 | C=CC(=O)N1CC2(CCN(c3nc(N4CC(N5CCC6(CC6)C5)C4)nc4c(OCC(F)(F)F)c(-c5c(C)ccc6[nH]ncc56)c(CC)cc34)CC2)C1 [Compound 114] | > 90 |
| < 300 | C=CC(=O)N1CC2(CCN(c3nc(N4CC5(CC(OC)CN5C)C4)nc4c(OCC(F)(F)F)c(-c5c(C)ccc6[nH]ncc56)c(C5CC5)cc34)CC2)C1 (centres unmarked) [Compound 123] | > 90 |
| < 300 | C=CC(=O)N1CC2(CCN(c3nc(N4CC(C)(CN5CCC5)C4)nc4c(OCC(F)(F)F)c(-c5c(C)ccc6[nH]ncc56)c(C5CC5)cc34)CC2)C1 [Compound 63] | > 90 |
| < 300 | C=CC(=O)N1CC2(CCN(c3nc(N4CC(N5CCC6(CC6)C5)C4)nc4c(OCC(F)(F)F)c(-c5c(C)ccc6[nH]ncc56)c(C5CC5)cc34)CC2)C1 [Compound 35] | > 90 |
| < 300 | C=CC(=O)N1CC2(CCN(c3nc(N4CCC5(CCN5CCOC)C4)nc4c(OCC(F)(F)F)c(-c5c(C)ccc6[nH]ncc56)c(C5CC5)cc34)CC2)C1 (centres unmarked) [Compound 78] | > 90 |
| 300 to 1000 | C=CC(=O)N1CC2(CCN(c3nc(O[C@H]4C[C@H](N5CC6(CC6)C5)C4)nc4c(OCC(F)(F)F)c(-c5c(C)ccc6[nH]ncc56)c(C5CC5)cc34)CC2)C1 [Compound 94] | 50 to 90 |
| < 300 | C=CC(=O)N1CC2(CCN(c3nc(N4CC(CC#N)(N5CCCC5)C4)nc4c(OCC(F)(F)F)c(-c5c(C)ccc6[nH]ncc56)c(C5CC5)cc34)CC2)C1 [Compound 55] | > 90 |
| < 300 | C=CC(=O)N1CC2(CCN(c3nc(N4CC(COC5CC5)C4)nc4c(OCC(F)(F)F)c(-c5c(C)ccc6[nH]ncc56)c(C5CC5)cc34)CC2)C1 [Compound 10] | > 90 |
| < 300 | C=CC(=O)N1CC2(CCN(c3nc(N4CC(CC#N)(N(C)CCOC)C4)nc4c(OCC(F)(F)F)c(-c5c(C)ccc6[nH]ncc56)c(C5CC5)cc34)CC2)C1 [Compound 53] | > 90 |
| < 300 | C=CC(=O)N1CC2(CCN(c3nc(O[C@H]4C[C@@H](N5CCC(F)(F)C5)C4)nc4c(OCC(F)(F)F)c(-c5c(C)ccc6[nH]ncc56)c(C5CC5)cc34)CC2)C1 [Compound 91] | > 90 |
| < 300 | C=CC(=O)N1CC2(CCN(c3nc(N4CC(N5CC6(CC6)C5)C4)nc4c(OCC(F)(F)F)c(-c5c(C)c(F)cc6[nH]ncc56)c(C5CC5)cc34)CC2)C1 [Compound 104] | > 90 |
| < 300 | C=CC(=O)N1CC2(CCN(c3nc(N4CC5(CCCN5CC)C4)nc4c(OCC(F)(F)F)c(-c5c(C)ccc6[nH]ncc56)c(C=C)cc34)CC2)C1 [Compound 132] | > 90 |
| < 300 | C=CC(=O)N1CC2(CCN(c3nc(N4CC5(CCCN5CCOC)C4)nc4c(OCC(F)(F)F)c(-c5c(C)ccc6[nH]ncc56)c(C5CC5)cc34)CC2)C1 [Compound 74] | > 90 |
| 300 to 1000 | C=CC(=O)N1CC2(CCN(c3nc(N4CC(N5CCS(=O)(=O)CC5)C4)nc4c(OCC(F)(F)F)c(-c5c(C)ccc6[nH]ncc56)c(C5CC5)cc34)CC2)C1 [Compound 27] | 50 to 90 |
| 300 to 1000 | C=CC(=O)N1CC2(CCN(c3nc(N4CCOC5(CN(CCOC)C5)C4)nc4c(OCC(F)(F)F)c(-c5c(C)ccc6[nH]ncc56)c(C5CC5)cc34)CC2)C1 [Compound 84] | 50 to 90 |
| < 300 | C=CC(=O)N1CC2(CCN(c3nc(N4CC5(CCN5CC(F)(F)F)C4)nc4c(OCC(F)(F)F)c(-c5c(C)ccc6[nH]ncc56)c(C5CC5)cc34)CC2)C1 [Compound 68] | > 90 |
| < 300 | C=CC(=O)N1CC2(CCN(c3nc(N4CC(N5CC6(CC6)C5)C4)nc4c(OCC(F)(F)F)c(-c5c(C)ccc6[nH]ncc56)c(C=C)cc34)CC2)C1 [Compound 100] | > 90 |
| 300 to 1000 | C=CC(=O)N1CC2(CCN(c3nc(N4CCOC5(CN(C)C5)C4)nc4c(OCC(F)(F)F)c(-c5c(C)ccc6[nH]ncc56)c(C5CC5)cc34)CC2)C1 [Compound 83] | 50 to 90 |
